Common to all, as to settings: 72 h
Test [1] deals with CAL-51. Summed up:
(§1)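 Each 384-well plate was pre-loaded with compound dissolved in 5 µl medium, received breast cancer cells in 20 µl suspension, and was incubated 72 h. A 2.5 µl addition of CellTiter-Blue for 2 h at 37 °C was followed by a fluorescence read at 560/590 nm. Data were normalised per plate to vehicle and a positive kill control and checked by Z'-factor. EC50 was fitted from the percent-inhibition dose-response curve, censored at the highest concentration, excluding rows with a drug sensitivity score of zero.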

Test [2] has as its system DU-4475. Summed up: as §1
The subject of test [3] is CAL-85-1. Summed up: as §1
Test [4] deals with HDQ-P1. The procedure, abridged:
as §1

Test [5] relates to HCC1599. Summed up:
as §1

Test [6] has as its system SK-BR-3. Summed up:
as §1

The test system of test [7] is HCC1143. Summed up: as §1
Test [8] concerns BT-549. The procedure, abridged: as §1
Test [9] concerns MDA-MB-231. Summed up:
as §1

Test [10] has as its system HCC1937. The procedure, abridged: as §1
The subject of test [11] is Hs578T. Summed up: as §1
For test [12], the system named is MDA-MB-468. The procedure, abridged:
as §1

The subject of test [13] is CAL-120. Summed up:
as §1

Test [14] relates to MDA-MB-436. Summed up:
as §1

For test [15], the system named is CAL-51. As to the method:
(§2)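 Drug sensitivity and resistance testing (DSRT) of breast cancer cell lines in 384-well plates, 5 concentrations in 10-fold dilutions over a compound-specific 10,000-fold range. After 72 h, cytotoxicity was read by CellTox Green fluorescence and viability by CellTiter-Glo luminescence (multiplexed), normalised to DMSO and benzethonium chloride controls. EC50 is the inflection point of the fitted dose-response curve (bottom asymptote free, so it can be relative for partial curves) and is censored at the highest tested concentration. Rows with DSS 0 (no meaningful response) were excluded.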
This is another data set of the same source.

For test [16], the system named is DU-4475. As to the method:
as §2
The source holds these as a separate data set.

The test system of test [17] is CAL-148. As to the method: as §2
Test [18] relates to CAL-85-1. As to the method:
as §2
This is another data set of the same source.

In test [19] the test system is Hs578T. The method, then: as §2
The source holds these as a separate data set.

Test [20] deals with MDA-MB-468. The method, then: as §2
This is another data set of the same source.

In test [21] the test system is CAL-120. As to the method:
as §2
This is another data set of the same source.

Test [22] relates to HCC1599. Summed up:
(§3)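 Breast cancer cell lines (20 µl suspension) were seeded into 384-well plates holding compound at 5 concentrations in 10-fold steps over a compound-specific 10,000-fold range, then incubated 72 h. Cell death was read first by CellTox Green fluorescence (485/520 nm), then viability by CellTiter-Glo luminescence after 10 min at room temperature. Each plate was normalised to 0.1 % DMSO and a positive kill control. EC50 was fitted from the dose-response curves and censored at the top concentration.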
This is another data set of the same source.

For test [23], the system named is DU-4475. The procedure, abridged:
as §3
This is another data set of the same source.

Test [24] relates to SK-BR-3. Summed up:
as §3
This is another data set of the same source.

The test system of test [25] is HCC1143. Summed up: as §3
The source holds these as a separate data set.

In test [26] the test system is CAL-148. Summed up: as §3
The source holds these as a separate data set.

For test [27], the system named is BT-549. The procedure, abridged: as §3
This is another data set of the same source.

The test system of test [28] is CAL-85-1. Summed up: as §3
This is another data set of the same source.

Test [29] has as its system MDA-MB-231. The procedure, abridged: as §3
The source holds these as a separate data set.

Test [30] deals with Hs578T. Summed up:
as §3
This is another data set of the same source.

For test [31], the system named is CAL-120. The procedure, abridged:
as §3
The source holds these as a separate data set.

Test [32] deals with MDA-MB-436. Summed up: as §3
This is another data set of the same source.

Test [33] deals with BT-474. The method, then:
as §2

Test [34] concerns MDA-MB-436. The method, then: as §2
The source holds these as a separate data set.

The subject of test [35] is HDQ-P1. Summed up: as §3
This is another data set of the same source.

The subject of test [36] is MCF-10A. Summed up: as §3
Test [37] deals with MDA-MB-453. Summed up: as §3
In test [38] the test system is BT-474. The procedure, abridged: as §1
The source holds these as a separate data set.

The test system of test [39] is MFM-223. The procedure, abridged: as §1
Test [40] relates to HDQ-P1. The method, then: as §2
This is another data set of the same source.

As for `COc1cc([C@@H]2c3cc4c(cc3[C@@H](O[C@@H]3O[C@@H]5CO[C@@H](C)O[C@H]5[C@H](O)[C@H]3O)[C@H]3COC(=O)[C@H]23)OCO4)cc(OC)c1O` [Etoposide], the “EC50, CellTiter-Blue viability” value in test [1] stood at 367 nM; in test [2], 180 nM; in test [3], 2550 nM; in test [4], 775 nM; in test [5], 1700 nM; in test [6], 785 nM. Also, the “EC50, CellTiter-Blue viability” value is 1600 nM in test [7]; 224 nM in [8]; 1020 nM in [9]; 3700 nM in [10]; 3040 nM in [11]; 1810 nM in test [12]. Also, the “EC50, CellTiter-Blue viability” value in test [13] turned out to be 2260 nM; in test [14], 2610 nM. The “EC50, CellTox Green” value was determined as 624 nM in [15]; 3830 nM in [16]; 3020 nM in [17]; 7710 nM in test [18]; 55.8 nM in test [19]; 2330 nM in test [20]. For the same molecule, the “EC50, CellTox Green” value in test [21] was 3670 nM. Moreover, the “EC50, CellTiter-Glo” value in test [22] was 1150 nM; in test [23], 1260 nM; in [24] it was 1210 nM; in test [25] it was 1650 nM; in [26], 980 nM; in test [27], 3990 nM. Besides, the “EC50, CellTiter-Glo” value is 9970 nM in test [28]; 1850 nM in test [29]; 1490 nM in test [30]; 1550 nM in test [31]; 977 nM in [32].
In the case of `CN(N=O)C(=O)N[C@@H](C=O)[C@@H](O)[C@H](O)[C@H](O)CO` [Streptozocin], the “EC50, CellTiter-Blue viability” value in test [10] was determined as 85.3 nM.
As to `COc1cc2ncnc(Nc3ccc(F)c(Cl)c3)c2cc1NC(=O)/C=C/CN1CCCCC1` [Dacomitinib], the “EC50, CellTox Green” value in [33] was 82.4 nM; in test [18] it was 564 nM; in test [34] it was 319 nM. Moreover, the “EC50, CellTiter-Glo” value came to 26.3 nM in test [24]; 56.8 nM in test [28]; 3.24 nM in test [35]; 6.27 nM in test [36]; 74.8 nM in test [37].
In the case of `C[C@@H](Oc1cc(-c2cnn(C3CCNCC3)c2)cnc1N)c1c(Cl)ccc(F)c1Cl` [Crizotinib], the “EC50, CellTiter-Blue viability” value in test [1] is 3140 nM; in test [2] it was 4940 nM; in test [3], 6530 nM; in test [4] it was 6970 nM; in [38] it was 3540 nM; in test [6], 4160 nM. The “EC50, CellTiter-Blue viability” value in [7] came out at 8170 nM; in test [8], 7180 nM; in test [9], 1360 nM; in [39], 3720 nM; in [10], 2280 nM; in test [11], 7690 nM. Also, the “EC50, CellTiter-Blue viability” value in test [12] was determined as 3640 nM; in [13], 2640 nM; in [14] it was 275 nM. Also, the “EC50, CellTox Green” value in [40] is over 1000 nM.
Consider `CNCc1ccc(-c2[nH]c3cc(F)cc4c3c2CCNC4=O)cc1` [Rucaparib], for which the “EC50, CellTiter-Blue viability” value in test [1] stood at 8870 nM; in [9], 683 nM; in [39], 5060 nM; in [10], 945 nM. Besides, the “EC50, CellTox Green” value in test [20] came to 2.01 nM. Besides, the “EC50, CellTiter-Glo” value was 501 nM in test [26] and over 10000 nM in test [27].
For the molecule `Cc1ccc(C(=O)N(CCCN)[C@@H](c2oc3cc(Cl)ccc3c(=O)c2Cc2ccccc2)C(C)C)cc1`, the “EC50, CellTiter-Blue viability” value in [1] turned out to be 6.53 nM; in [2], 8.62 nM; in [3] it was 4.95 nM; in test [4], 2.34 nM; in [38], 4.38 nM; in test [6], 0.74 nM. The “EC50, CellTiter-Blue viability” value in [7] worked out at 2.09 nM; in test [8] it was 1.83 nM; in test [9] it was 0.34 nM; in test [39], 3.75 nM; in test [10] it was 0.62 nM; in [11], 4.05 nM. The “EC50, CellTiter-Blue viability” value was 1.88 nM in test [12], 0.57 nM in [13] and 2.55 nM in [14].

These data come from the supplement of paper PMC4862054.
